Data as given in PubChem BioAssay AID330 (DTP/NCI, 2004).
Values joined by “and” are separate entries in the source; they are usually repeats but may differ in a detail not shown here. Equal values may be shown once. Toxic doses and inconclusive results are not listed. How the source made its calls: active means survival T/C of 150% or more; inactive means T/C below 125% in these data. Peptide text beside a SMILES is read from it. * marks the point of attachment. Boc = CC(C)(C)OC(=O)*

Tested on: P388 leukemia ip, CD2F1 mice, survival T/C
Experiment: NCI In Vivo Anticancer Drug Screen. Data for tumor model P388 Leukemia (intraperitoneal) in CD2F1 (CDF1) mice
Settings: endpoint: median survival time, higher = longer survival
Summary of the method: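 Mice carrying the transplanted tumor received test compound or vehicle. Survival was recorded in each group, and the value is the treated-group measurement divided by that of the vehicle-treated control group.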

[1] = dose: 50.0 mg/kg/injection, schedule: Q01DX009 (ip), vehicle: saline
[2] = dose: 100.0 mg/kg/injection, schedule: Q01DX009 (ip), vehicle: saline
[3] = dose: 200.0 mg/kg/injection, schedule: Q01DX009 (ip), vehicle: saline
[4] = dose: 60.0 mg/kg/injection, schedule: Q01DX005 (ip), vehicle: saline with Tween-80
[5] = dose: 120.0 mg/kg/injection, schedule: Q01DX005 (ip), vehicle: saline with Tween-80
[6] = dose: 240.0 mg/kg/injection, schedule: Q01DX005 (ip), vehicle: saline with Tween-80
[7] = dose: 25.0 mg/kg/injection, schedule: Q01DX005 (ip), vehicle: saline
[8] = dose: 50.0 mg/kg/injection, schedule: Q01DX005 (ip), vehicle: saline with Tween-80
[9] = dose: 100.0 mg/kg/injection, schedule: Q01DX005 (ip), vehicle: saline with Tween-80
[10] = dose: 50.0 mg/kg/injection, schedule: Q01DX005 (ip), vehicle: Klucel (hydroxypropylcellulose) (HPC)
[11] = dose: 100.0 mg/kg/injection, schedule: Q01DX005 (ip), vehicle: Klucel (hydroxypropylcellulose) (HPC)
[12] = dose: 200.0 mg/kg/injection, schedule: Q01DX005 (ip), vehicle: Klucel (hydroxypropylcellulose) (HPC)
[13] = dose: 50.0 mg/kg/injection, schedule: Q01DX009 (ip), vehicle: saline with Tween-80
[14] = dose: 100.0 mg/kg/injection, schedule: Q01DX009 (ip), vehicle: saline with Tween-80

Measured: T/C

c1cc[n+]2cc3cc4c(cc3cc2c1)OCO4
inactive: dose: 3.13 mg/kg/injection, schedule: Q01DX009 (ip), vehicle: distilled water + Tween-80 103 % of control and 107 % of control | dose: 6.25 mg/kg/injection, schedule: Q01DX009 (ip), vehicle: distilled water + Tween-80 119 % of control and 123 % of control | dose: 25.0 mg/kg/injection, schedule: Q01DX009 (ip), vehicle: distilled water + Tween-80 120 % of control and 94 % of control

O=C(O)c1c(-c2ccccc2)nn(-c2ccccc2)c1-c1ccccc1
inactive: dose: 50.0 mg/kg/injection, schedule: Q04DX003 (ip), vehicle: suspension in saline 108 % of control | dose: 100.0 mg/kg/injection, schedule: Q04DX003 (ip), vehicle: suspension in saline 106 % of control | dose: 200.0 mg/kg/injection, schedule: Q04DX003 (ip), vehicle: suspension in saline 102 % of control

CC(=O)Oc1ccccc1O
inactive: dose: 25.0 mg/kg/injection, schedule: Q01DX009 (ip), vehicle: saline + Tween-80 + alcohol 106 % of control | dose: 50.0 mg/kg/injection, schedule: Q01DX009 (ip), vehicle: saline + Tween-80 + alcohol 101 % of control and 105 % of control and 116 % of control | dose: 100.0 mg/kg/injection, schedule: Q01DX009 (ip), vehicle: saline + Tween-80 + alcohol 109 % of control and 115 % of control

O=C(CC(=O)C(F)(F)F)c1cccs1.O=C(CC(=O)C(F)(F)F)c1cccs1.O=C(CC(=O)C(F)(F)F)c1cccs1.[Tb]
inactive: [1] 86 % of control | [2] 86 % of control | [3] 89 % of control

COc1ccc(C(c2cc3c(cc2O)OCO3)n2ccnc2)cc1 (centres undefined)
inactive: [4] 99 % of control | [5] 99 % of control | [6] 96 % of control

CC1(c2cccc[n+]2Cc2ccc(Cl)c(Cl)c2)OCCO1
inactive: dose: 12.5 mg/kg/injection, schedule: Q01DX005 (ip), vehicle: saline 100 % of control | [7] 99 % of control

CCN(CC)CCCNc1nccc2c(OC)cccc12
inactive: [7] 93 % of control | dose: 50.0 mg/kg/injection, schedule: Q01DX005 (ip), vehicle: saline 89 % of control

CC(C)(C)N1C(=O)NCC1(C)C
inactive: [1] 105 % of control | [2] 100 % of control | [3] 98 % of control

[Cl][Sn]1([Cl])[CH2]CCCCCC[CH2][Sn]([Cl])([Cl])[CH2]CCCCCC[CH2]1
inactive: [8] 92 % of control | [9] 92 % of control

CC(=O)Nc1c(Cl)cc(Cl)c2c1Cc1cc(Cl)ccc1-2
inactive: [10] 88 % of control | [11] 94 % of control | [12] 112 % of control

CCC(C)C(NC(=O)OC(C)(C)C)C(=O)NC(CCSC)C(N)=O (stereo not drawn) (Boc-Ile-Met-NH2; configuration not given here)
inactive: [10] 97 % of control | [11] 95 % of control | [12] 89 % of control

O=C(C(O)C(O)C(O)CO)n1cnc2c1ncn1c(=O)cc(CI)nc21 (centres undefined)
inactive: dose: 100.0 mg/kg/injection, schedule: Q01DX001 (ip), vehicle: saline with Tween-80 105 % of control | dose: 200.0 mg/kg/injection, schedule: Q01DX001 (ip), vehicle: saline with Tween-80 97 % of control | dose: 400.0 mg/kg/injection, schedule: Q01DX001 (ip), vehicle: saline with Tween-80 111 % of control

O=C1NC(c2ccccc2)(c2ccccc2)C(=O)N1CCS
inactive: dose: 25.0 mg/kg/injection, schedule: Q04DX003 (ip), vehicle: Klucel (hydroxypropylcellulose) (HPC) 99 % of control and 106 % of control | dose: 50.0 mg/kg/injection, schedule: Q04DX003 (ip), vehicle: Klucel (hydroxypropylcellulose) (HPC) 100 % of control | dose: 100.0 mg/kg/injection, schedule: Q04DX003 (ip), vehicle: Klucel (hydroxypropylcellulose) (HPC) 100 % of control and 114 % of control | dose: 200.0 mg/kg/injection, schedule: Q04DX003 (ip), vehicle: Klucel (hydroxypropylcellulose) (HPC) 104 % of control and 108 % of control | dose: 400.0 mg/kg/injection, schedule: Q04DX003 (ip), vehicle: Klucel (hydroxypropylcellulose) (HPC) 112 % of control and 114 % of control

O=[N+]([O-])c1ccc(-c2nc(/C=N/N3CCOCC3)cs2)s1
inactive: dose: 25.0 mg/kg/injection, schedule: Q01DX009 (ip), vehicle: saline with Tween-80 110 % of control | [13] 115 % of control | [14] 114 % of control

OCC1OC(OC2C3CSC(O3)C(O)C2O)C(O)C(O)C1O (centres undefined)
inactive: [1] 105 % of control | [2] 106 % of control | [3] 106 % of control

Cc1[nH]nc2c1NC(=O)OCC2
inactive: [8] 101 % of control | [9] 101 % of control | dose: 200.0 mg/kg/injection, schedule: Q01DX005 (ip), vehicle: saline with Tween-80 101 % of control

O=CNCO
inactive: dose: 250.0 mg/kg/injection, schedule: Q01DX005 (ip), vehicle: water 100 % of control | dose: 500.0 mg/kg/injection, schedule: Q01DX005 (ip), vehicle: water 101 % of control and 103 % of control | dose: 1000.0 mg/kg/injection, schedule: Q01DX005 (ip), vehicle: water 108 % of control and 110 % of control | dose: 2000.0 mg/kg/injection, schedule: Q01DX005 (ip), vehicle: water 114 % of control

Clc1c(Cl)c(C[P+](CCP(c2ccccc2)c2ccccc2)(c2ccccc2)c2ccccc2)c(Cl)c(Cl)c1C[P+](CCP(c1ccccc1)c1ccccc1)(c1ccccc1)c1ccccc1
inactive: dose: 12.5 mg/kg/injection, schedule: Q01DX009 (ip), vehicle: saline with Tween-80 120 % of control

CC(=O)Oc1cc2c(cc1OC(C)=O)C(=O)c1cc3c(cc1C2=O)OCO3
inactive: [4] 107 % of control | [5] 120 % of control | [6] 108 % of control

C[Si](C)(C)CCCn1ccc(=O)[nH]c1=O
inactive: [4] 98 % of control | [5] 92 % of control | [6] 88 % of control

CN1C(=O)[C@@H]2N(N(C)C1=O)[C@@]1(Br)C(=O)N(C)C(=O)[C@@]21Br
inactive: dose: 60.0 mg/kg/injection, schedule: Q01DX005 (ip), vehicle: Klucel (hydroxypropylcellulose) (HPC) 100 % of control | dose: 120.0 mg/kg/injection, schedule: Q01DX005 (ip), vehicle: Klucel (hydroxypropylcellulose) (HPC) 105 % of control | dose: 240.0 mg/kg/injection, schedule: Q01DX005 (ip), vehicle: Klucel (hydroxypropylcellulose) (HPC) 101 % of control

COc1ccc(C(=O)CC2=NC3NN(c4ccccc4)C(=O)C3=C2CC(=O)c2ccc(OC)cc2)cc1 (centres undefined)
inactive: dose: 60.0 mg/kg/injection, schedule: Q01DX005 (ip), vehicle: suspension in saline 101 % of control | dose: 120.0 mg/kg/injection, schedule: Q01DX005 (ip), vehicle: suspension in saline 108 % of control | dose: 240.0 mg/kg/injection, schedule: Q01DX005 (ip), vehicle: suspension in saline 112 % of control

O=C1C2CC3CC4C(=O)C5CC1C1C2C3C4C51 (centres undefined)
inactive: [13] 94 % of control | [14] 102 % of control | dose: 200.0 mg/kg/injection, schedule: Q01DX009 (ip), vehicle: saline with Tween-80 97 % of control

CN(CC(=O)O)N=Nc1ccc(C(N)=O)cc1
inactive: [10] 100 % of control | [11] 96 % of control | [12] 100 % of control

CSC1=NN(C(C)=O)C(c2ccncc2)S1 (centres undefined)
inactive: [10] 96 % of control | [11] 97 % of control | [12] 92 % of control

O=C(O)CC(CC(=O)c1ccccc1)c1ccccc1 (centres undefined)
inactive: dose: 12.5 mg/kg/injection, schedule: Q01DX009 (ip), vehicle: Klucel (hydroxypropylcellulose) (HPC) 104 % of control | dose: 25.0 mg/kg/injection, schedule: Q01DX009 (ip), vehicle: Klucel (hydroxypropylcellulose) (HPC) 101 % of control | dose: 50.0 mg/kg/injection, schedule: Q01DX009 (ip), vehicle: Klucel (hydroxypropylcellulose) (HPC) 103 % of control and 108 % of control | dose: 100.0 mg/kg/injection, schedule: Q01DX009 (ip), vehicle: Klucel (hydroxypropylcellulose) (HPC) 101 % of control and 102 % of control and 107 % of control | dose: 200.0 mg/kg/injection, schedule: Q01DX009 (ip), vehicle: Klucel (hydroxypropylcellulose) (HPC) 104 % of control and 94 % of control | dose: 400.0 mg/kg/injection, schedule: Q01DX009 (ip), vehicle: Klucel (hydroxypropylcellulose) (HPC) 104 % of control and 93 % of control

COC(=O)C1C2CC3c4c(c5ccc(OC)cc5n4[N+](=O)[O-])CCN3CC2CC(OC(=O)c2cc(OC)c(OC)c(OC)c2)C1OC (centres undefined)
inactive: dose: 12.5 mg/kg/injection, schedule: Q01DX005 (ip), vehicle: Klucel (hydroxypropylcellulose) (HPC) 96 % of control | dose: 25.0 mg/kg/injection, schedule: Q01DX005 (ip), vehicle: Klucel (hydroxypropylcellulose) (HPC) 98 % of control | [10] 104 % of control | [11] 114 % of control | [12] 88 % of control
